Here are results for one molecule from article PMC5476196, “Uptake, biotransformation and elimination of selected pharmaceuticals in a freshwater invertebrate measured using liquid chromatography tandem mass spectrometry” (Chemosphere, 2017).

“Also recorded” adds a separate entry of the source.

In series [1] the test system is sturgeons. The arrangement: method as in Hou et al., 2003. The following applies: ref Hou et al., 2003; cited from earlier work.
The procedure of series [2]:
(§1) Individual adult organisms (n = 25), both male and female (>5 mg wet weight) were placed in Pyrex glass beakers. G. pulex were carefully transferred to beakers using blunt forceps to avoid any harm to the organisms before exposure. Each beaker contained 25 organisms in 200 mL of exposure media (AFW and test compound). […] All exposure media contained <0.001% of organic solvent (methanol). A total of 300 organisms were used per compound exposure and were sampled for n = 3 per time-point. […] These were subsequently analysed for background contamination. […] Each animal specimen was rinsed with ultra-pure water and then frozen at −20 °C.
(§2) Water samples collected from exposure experiments were filtered using Whatman filters (0.2 μM) and directly injected onto the LC-MS/MS for analysis. For G. pulex, A mass of 50 mg of lyophilised and ground material was extracted by glass bead pulverisation in 5 mL of acetonitrile and diluted with 100 mL of ammonium acetate buffer (10 mM) for loading onto Waters HLB solid phase extraction (SPE) cartridges (6 cc, 200 mg sorbent).

The subject of series [3] is Gammarus pulex. As to the kind of experiment: in vivo. The following applies: exposure 1 μg L^−1. The protocol: as §1, §2
Briefly, separations were performed on an Agilent HP1100 LC system configured with a Waters SunFire reversed-phase C18 column (150 mm × 2.1 mm, 2.5 μM particle size). […] Detection was performed using a Waters Quattro triple quadrupole mass spectrometer with electrospray ionisation operated in positive and negative polarity switching mode. Quantification of analytes was performed using 3-point internal standard matrix-matched calibration using the peak area ratio of non-labelled analyte (precursor range: 50–300 ng g^−1, biotransformation product range: 50–150 ng g^−1) to the stable isotope labelled internal standard (SIL-IS) (100 ng g^−1).
Herein, the authors define BCFtotal as the summation of the BCF of both parent/precursor and biotransformation products (i.e. the total body burden). Whereas, BCFparent will be used to describe the BCF determined for the parent compound alone.

Regarding `Cc1cc(C)nc(NS(=O)(=O)c2ccc(N)cc2)n1` [Sulfamethazine, sulfamethazine], the BCF in sturgeons in series [1] was 1 L/kg. Also, the “stability of aqueous pharmaceutical concentration” value in series [2] (across the exposure period) is “remained stable”. In series [2] (exposure media after 24 h of exposure with Day 1 solution, n = 3), the “Concentration, 24 h” value was found to be 0.99 ng/mL. For the same molecule, the “Concentration, 48 h” value in series [2] (exposure media after 24 h of exposure with Day 2 solution, n = 3 (propranolol n = 2)) was found to be 0.71 ng/mL. The “Concentration, Day 2 (initial pharmaceutical concentration on day 2)” value in series [2] (exposure media, n = 2) came out at 0.89 ng/mL. Besides, the “Concentration, Day 1 (initial pharmaceutical concentration on day 1)” value in series [2] (exposure media, n = 3, nominal 1 μg L^−1 (propranolol 10 μg L^−1)) came out at 1.06 ng/mL. Further, in series [3], the “detection of parent compound in G. pulex samples” value was “not detected in any sample; also recorded: no peaks were detected”.
